Experimental data reported in ChEMBL document CHEMBL1126118, “Synthesis and biological activity of ketomethylene pseudopeptide analogues as thrombin inhibitors” (J Med Chem, 1992).

Key:
[1] = species: Homo sapiens; experiment: Concentration required to double the human alpha-thrombin induced clotting time of human plasma; format: functional
[2] = biological target: Prothrombin (Homo sapiens, UniProt P00734); experiment: In vitro inhibitory activity against thrombin
[3] = biological target: Plasminogen (Rattus norvegicus, UniProt Q01177); experiment: In vitro inhibitory activity against plasmin
[4] = biological target: Urokinase-type plasminogen activator (Homo sapiens, UniProt P00749); experiment: In vitro inhibitory activity against Urokinase-type plasminogen activator
[5] = biological target: Coagulation factor X (Homo sapiens, UniProt P00742); experiment: In vitro inhibitory activity against Coagulation factor X
[6] = biological target: Kallikrein-1 (Homo sapiens, UniProt P06870); experiment: In vitro inhibitory activity against Kallikrein
[7] = species: Homo sapiens; experiment: Concentration required to double the activated partial thromboplastin time of human plasma was measured; format: functional

Sequence of Kallikrein-1 (P06870 whole entry): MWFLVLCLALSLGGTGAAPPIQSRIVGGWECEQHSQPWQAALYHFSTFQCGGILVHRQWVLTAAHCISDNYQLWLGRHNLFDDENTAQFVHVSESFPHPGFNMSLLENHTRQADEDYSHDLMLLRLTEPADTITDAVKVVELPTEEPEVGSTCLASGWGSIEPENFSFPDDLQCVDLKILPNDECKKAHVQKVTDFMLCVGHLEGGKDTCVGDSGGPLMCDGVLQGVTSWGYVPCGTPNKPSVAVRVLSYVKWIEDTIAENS
Sequence of Plasminogen (Q01177 97-581 limits assumed): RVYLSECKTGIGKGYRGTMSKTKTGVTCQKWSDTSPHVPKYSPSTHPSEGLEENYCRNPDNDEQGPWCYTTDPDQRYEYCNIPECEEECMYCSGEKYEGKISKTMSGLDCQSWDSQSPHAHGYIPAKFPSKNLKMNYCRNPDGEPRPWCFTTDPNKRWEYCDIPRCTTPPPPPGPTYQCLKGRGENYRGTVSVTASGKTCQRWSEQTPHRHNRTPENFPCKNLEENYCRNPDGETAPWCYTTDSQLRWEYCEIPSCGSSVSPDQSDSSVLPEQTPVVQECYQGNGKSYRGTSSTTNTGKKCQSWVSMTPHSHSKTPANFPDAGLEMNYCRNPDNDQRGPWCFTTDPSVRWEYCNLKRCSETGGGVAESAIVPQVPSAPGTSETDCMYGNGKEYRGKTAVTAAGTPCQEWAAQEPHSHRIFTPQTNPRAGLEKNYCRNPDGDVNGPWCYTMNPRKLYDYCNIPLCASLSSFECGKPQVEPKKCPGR
Sequence of Plasminogen (Q01177 582-812 limits assumed): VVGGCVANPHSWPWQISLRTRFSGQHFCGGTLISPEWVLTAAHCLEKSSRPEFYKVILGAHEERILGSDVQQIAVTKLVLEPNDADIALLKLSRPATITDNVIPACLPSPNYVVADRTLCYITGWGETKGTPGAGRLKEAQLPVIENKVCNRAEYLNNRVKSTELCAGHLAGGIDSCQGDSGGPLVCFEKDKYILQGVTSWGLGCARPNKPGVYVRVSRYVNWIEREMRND
Sequence of Coagulation factor X (P00742 41-179 limits assumed): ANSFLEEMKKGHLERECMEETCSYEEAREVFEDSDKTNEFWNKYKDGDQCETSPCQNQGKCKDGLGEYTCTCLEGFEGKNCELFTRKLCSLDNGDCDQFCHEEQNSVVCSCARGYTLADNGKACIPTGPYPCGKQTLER
Sequence of Coagulation factor X (P00742 235-488 limits assumed): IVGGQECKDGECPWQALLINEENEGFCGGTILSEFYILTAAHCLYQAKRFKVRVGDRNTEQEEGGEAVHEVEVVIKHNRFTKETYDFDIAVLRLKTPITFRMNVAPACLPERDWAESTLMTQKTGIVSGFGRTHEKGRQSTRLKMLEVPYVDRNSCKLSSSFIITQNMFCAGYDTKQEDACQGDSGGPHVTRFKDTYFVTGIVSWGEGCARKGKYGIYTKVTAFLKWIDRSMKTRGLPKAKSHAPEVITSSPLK

Row | Ki [2] [µM] | Ki [3] [µM] | Ki [4] [µM] | Ki [5] [µM] | Ki [6] [µM] | SMILES | TT [1] [µM] | APTT [7] [µM]
1 | 2.28 | – | – | – | – | NC(N)=NCCCC(NC(=O)[C@@H]1CCCN1C(=O)[C@H](N)Cc1ccc2ccccc2c1)C(=O)CCC(=O)N1CCCCC1 (stereo partly specified) | – | –
2 | 11.6 | – | – | – | – | NC(N)=NCCCC(NC(=O)[C@@H]1CCCN1C(=O)C(N)Cc1ccc2ccccc2c1)C(=O)CCC(=O)N1CCCCC1.O=C(O)C(F)(F)F.O=C(O)C(F)(F)F (stereo partly specified) | 90 | –
3 | 0.6 | – | – | – | – | NC(N)=NCCCC(NC(=O)[C@@H]1CCCN1C(=O)C(N)C(c1ccccc1)c1ccccc1)C(=O)CCC(=O)N1CCCCC1.O=C(O)C(F)(F)F.O=C(O)C(F)(F)F (stereo partly specified) | – | 45

The remaining lines, values behind:

Row | SMILES | Ki [2] [µM] | Ki [3] [µM] | Ki [4] [µM] | Ki [5] [µM] | Ki [6] [µM] | TT [1] [µM] | APTT [7] [µM]
4 | NC(N)=NCCCC(NC(=O)[C@@H]1CCCN1C(=O)[C@H](N)Cc1ccccc1)C(=O)CCC(=O)N1CCCCC1 (stereo partly specified) | – | – | – | – | – | 4.9 | –
5 | NC(N)=NCCCC(NC(=O)[C@@H]1CCCN1C(=O)[C@H](N)C(c1ccccc1)c1ccccc1)C(=O)CCC(=O)N1CCCCC1.O=C(O)C(F)(F)F.O=C(O)C(F)(F)F (stereo partly specified) | 0.2 | 157 | 494 | 149 | 199 | 0.65 | 8
6 | NC(N)=NCCCC(NC(=O)[C@@H]1CCCN1C(=O)[C@@H](N)C(c1ccccc1)c1ccccc1)C(=O)CCC(=O)N1CCCCC1.O=C(O)C(F)(F)F.O=C(O)C(F)(F)F (stereo partly specified) | 1.7 | – | – | – | – | 7.5 | 100
